# Laboratory results as given in ChEMBL document CHEMBL6127107, “Oleanolic acid derivatives against drug-resistant bacteria and fungi by multi-targets to avoid drug resistance” (Eur J Med Chem, 2024).
# The source made the active and inactive calls. The calls are words filed in the database; no cut-off is given here.
# Key:
# [1] = Hemolytic activity against Mianyang red blood cells (unknown origin); assay type: toxicity, cell-based, RBC
# [2] = system: Staphylococcus aureus; experiment: Synergistic antibacterial activity against methicillin-resistant Staphylococcus aureus assessed as fractional inhibitory concentration index in presence of vancomycin; assay type: functional
# [3] = system: Staphylococcus aureus; experiment: Synergistic antibacterial activity against methicillin-resistant Staphylococcus aureus assessed as fractional inhibitory concentration index in presence of polymyxin B; assay type: functional, organism-based
# [4] = system: Staphylococcus aureus; experiment: Synergistic antibacterial activity against methicillin-resistant Staphylococcus aureus assessed as fractional inhibitory concentration index in presence of ceftriaxone; assay type: functional
# [5] = system: Pseudomonas aeruginosa; experiment: Antimicrobial activity against Pseudomonas aeruginosa; assay type: functional
# [6] = system: DNA; experiment: Binding affinity to methicillin-resistant Staphylococcus aureus DNA assessed as change in DNA conformation by UV absorption based analysis; assay type: nucleic-acid assay
# [7] = system: Staphylococcus aureus; experiment: Antibacterial activity against methicillin-resistant Staphylococcus aureus infected in cyclophosphamide-injected Kunming mouse model of skin wound infection assessed as normal morphological appearance of skin at 1 to 4 mg/kg administered for 7 days and measured on day 8 by H and E staining based analysis; assay type: functional, organism-based; settings: dose 1-4 mg/kg, time 8.0 day
# [8] = system: Staphylococcus aureus; experiment: Antibacterial activity against methicillin-resistant Staphylococcus aureus infected in cyclophosphamide-injected Kunming mouse model of skin wound infection assessed as increase in body weight at 2 to 4 mg/kg measured after 3 days; assay type: functional, organism-based; settings: dose 2-4 mg/kg, time 3.0 day
# [9] = system: Staphylococcus aureus; experiment: Antibacterial activity against methicillin-resistant Staphylococcus aureus infected in cyclophosphamide-injected Kunming mouse model of skin wound infection assessed as wound scabbing at 2 to 4 mg/kg measured after 2 days by photographic analysis; assay type: functional, organism-based; settings: dose 2-4 mg/kg, time 2.0 day
# [10] = system: Staphylococcus aureus; experiment: Antimicrobial activity against Staphylococcus aureus 31; assay type: functional
# [11] = system: Staphylococcus aureus; experiment: Antibiofilm activity against methicillin-resistant Staphylococcus aureus assessed as reduction in number of live cells at 8 times of MIC (reference value: 7.79 log10CFU/ml); assay type: functional
# [12] = system: Staphylococcus aureus; experiment: Synergistic antibacterial activity against methicillin-resistant Staphylococcus aureus assessed as fractional inhibitory concentration index in presence of fluconazole; assay type: functional
# [13] = system: Staphylococcus aureus; experiment: Synergistic antibacterial activity against methicillin-resistant Staphylococcus aureus assessed as fractional inhibitory concentration index in presence of azithromycin; assay type: functional
# [14] = system: Staphylococcus aureus; experiment: Antimicrobial activity against methicillin-resistant Staphylococcus aureus 011; assay type: functional
# [15] = system: Enterococcus faecalis; experiment: Antimicrobial activity against vancomycin resistant Enterococcus faecalis ATCC 51299; assay type: functional
# [16] = system: Staphylococcus aureus; experiment: Antibacterial activity against methicillin-resistant Staphylococcus aureus assessed as inhibition of bacterial growth at 1 times of MIC; assay type: functional, organism-based
# [17] = system: Escherichia coli; experiment: Antimicrobial activity against Escherichia coli; assay type: functional
# [18] = system: Staphylococcus aureus; experiment: Antibiofilm activity against methicillin-resistant Staphylococcus aureus assessed as decrease in biofilm biomass at 1 to 8 times of MIC by crystal violet staining based analysis; assay type: functional, organism-based
# [19] = system: Staphylococcus aureus; experiment: Bactericidal activity against methicillin-resistant Staphylococcus aureus; assay type: functional, organism-based
# [20] = system: Staphylococcus aureus; experiment: Antibacterial activity against methicillin-resistant Staphylococcus aureus infected in cyclophosphamide-injected Kunming mouse model of skin wound infection assessed as reduction in IL-6 level in skin at 1 to 4 mg/kg administered for 7 days and measured on day 8; assay type: functional, organism-based; settings: dose 1-4 mg/kg, time 8.0 day
# [21] = system: Staphylococcus aureus; experiment: Synergistic antibacterial activity against methicillin-resistant Staphylococcus aureus assessed as fractional inhibitory concentration index in presence of LCN antibiotic; assay type: functional, organism-based
# [22] = system: Staphylococcus aureus; experiment: Antibacterial activity against methicillin-resistant Staphylococcus aureus infected in cyclophosphamide-injected Kunming mouse model of skin wound infection assessed as reduction in bacterial load in skin at 1 mg/kg measured after 7 days; assay type: functional; settings: time 7 day
# [23] = system: Staphylococcus aureus; experiment: Antimicrobial activity against methicillin-resistant Staphylococcus aureus in presence of cardiolipin; assay type: functional, organism-based
# [24] = system: Mitochondrial membrane; experiment: Induction of mitochondrial membrane depolarization in methicillin-resistant Staphylococcus aureus assessed as increase in fluorescence intensity at 1 to 8 times of MIC by DiSC3(5) staining based analysis; assay type: cell membranes
# [25] = system: DNA; experiment: Binding affinity to methicillin-resistant Staphylococcus aureus DNA assessed as decrease in fluorescence by PI staining based analysis; assay type: nucleic-acid assay
# [26] = system: Cell membrane; experiment: Disruption of cell membrane integrity in methicillin-resistant Staphylococcus aureus assessed as cell rupture at 2 to 4 times of MIC by scanning electron microscopic analysis; assay type: subcellular
# [27] = system: HEK-293T; experiment: Cytotoxicity against HEK293T cells at 64 microg/ml by MTT assay; assay type: toxicity, cell-based; settings: human, dose 64 µg/ml
# [28] = system: Cell membrane; experiment: Disruption of cell membrane integrity in methicillin-resistant Staphylococcus aureus assessed as increase in ROS level at 2 to 8 times of MIC incubated for 1 hrs; assay type: subcellular
# [29] = system: Staphylococcus aureus; experiment: Bactericidal activity against methicillin-resistant Staphylococcus aureus assessed as eradication of bacterial growth at 4 times of MIC measured within 1 hrs relative to control; assay type: functional
# [30] = system: Cell membrane; experiment: Disruption of cell membrane integrity in methicillin-resistant Staphylococcus aureus assessed as cell deformation at 2 to 4 times of MIC by scanning electron microscopic analysis; assay type: subcellular
# [31] = system: Staphylococcus aureus; experiment: Antibacterial activity against methicillin-resistant Staphylococcus aureus infected in cyclophosphamide-injected Kunming mouse model of skin wound infection assessed as increase in IL-10 level in skin at 1 to 4 mg/kg administered for 7 days and measured on day 8; assay type: functional, organism-based; settings: dose 1-4 mg/kg, time 8.0 day
# [32] = system: Staphylococcus aureus; experiment: Antibacterial activity against methicillin-resistant Staphylococcus aureus infected in cyclophosphamide-injected Kunming mouse model of skin wound infection assessed as reduction in skin lesions at 1 to 4 mg/kg administered for 7 days and measured on day 8 by H and E staining based analysis; assay type: functional, organism-based; settings: dose 1-4 mg/kg, time 8.0 day
# [33] = system: Staphylococcus aureus; experiment: Antimicrobial activity against methicillin-resistant Staphylococcus aureus in presence of phosphatidylethanolamine; assay type: functional, organism-based
# [34] = system: Staphylococcus aureus; experiment: Antibacterial activity against methicillin-resistant Staphylococcus aureus in presence of DNA; assay type: functional, organism-based
# [35] = system: Staphylococcus aureus; experiment: Synergistic antibacterial activity against methicillin-resistant Staphylococcus aureus assessed as fractional inhibitory concentration index in presence of norfloxacin; assay type: functional, organism-based
# [36] = system: Staphylococcus aureus; experiment: Selectivity ratio of MBEC for methicillin-resistant Staphylococcus aureus to MIC for methicillin resistant Staphylococcus aureus; assay type: functional
# [37] = system: Staphylococcus aureus; experiment: Synergistic antibacterial activity against methicillin-resistant Staphylococcus aureus assessed as fractional inhibitory concentration index in presence of cefoxitin; assay type: functional
# [38] = system: Staphylococcus aureus; experiment: Antibacterial activity against methicillin-resistant Staphylococcus aureus infected in cyclophosphamide-injected Kunming mouse model of skin wound infection assessed as reduction in bacterial load in skin at 4 mg/kg measured after 7 days; assay type: functional; settings: time 7 day
# [39] = system: Staphylococcus aureus; experiment: Synergistic antibacterial activity against methicillin-resistant Staphylococcus aureus assessed as fractional inhibitory concentration index in presence of chlorpromazine; assay type: functional
# [40] = system: DNA; experiment: Binding affinity to […] methicillin-resistant Staphylococcus aureus DNA assessed as inhibition of DNA migration by electrophoretic analysis; assay type: nucleic-acid assay
# [41] = system: Staphylococcus aureus; experiment: Antibacterial activity against methicillin-resistant Staphylococcus aureus at sub-MIC measured after 20 days of continuous passage; assay type: functional, organism-based; settings: time 20.0 day
# [42] = Selectivity index, ratio of HC50 for hemolytic activity against Mianyang red blood cells (unknown origin) to MIC for antimicrobial activity against methicillin resistant Staphylococcus aureus 003; assay type: toxicity, cell-based, RBC; settings: read-out: Selectivity Index
# [43] = system: Staphylococcus aureus; experiment: Antimicrobial activity against Staphylococcus aureus 29; assay type: functional
# [44] = system: DNA; experiment: Binding affinity to methicillin-resistant Staphylococcus aureus DNA assessed as inhibition of DNA migration at 75 microg/ml by electrophoretic analysis; assay type: nucleic-acid assay; settings: dose 75.0 µg/ml
# [45] = system: Staphylococcus aureus; experiment: Antibiofilm activity against methicillin-resistant Staphylococcus aureus assessed as decrease in biofilm density at 1 to 8 times of MIC incubated for 24 hrs by fluorescence microscopic analysis; assay type: functional, organism-based
smiles,measurement,setting,value
CC(=O)O[C@H]1CC[C@]2(C)[C@H]3CC=C4[C@@H]5CC(C)(C)CC[C@]5(C(=O)NCCCNC(=N)N)CC[C@@]4(C)[C@]3(C)CC[C@H]2C1(C)C,HC50,[1],399 µg/mL
same,Activity,[2],Active
same,Activity,[3],Active
same,Activity,[4],Active
same,MIC,[5],> 64 µg/mL
same,Activity,[6],Active
same,Activity,[7],Active
same,Activity,[8],Active
same,Activity,[9],Active
same,MIC,[10],1 µg/mL
same,Activity,[11],2.7 log10CFU/ml
same,Activity,[12],Active
same,fractional inhibitory concentration index (FICI),[13],0.188
same,MIC,[14],2 µg/mL
same,MIC,[15],2 µg/mL
same,Activity,[16],Active
same,MIC,[17],> 64 µg/mL
same,Activity,[18],Active
same,Activity,[19],Active
same,Activity,[20],Active
same,Activity,[21],Active
same,Activity,[22],0.97 log10CFU/mg
same,Activity,[23],inactive
same,Activity,[24],Dose-Dependent Effect
same,Activity,[25],Dose-Dependent Effect
same,Activity,[26],Active
same,Activity,[27],Non-Toxic
same,Activity,[28],Active
same,Activity,[29],99.99%
same,Activity,[30],Active
same,Activity,[31],Active
same,Activity,[32],Active
same,Activity,[33],inactive
same,Activity,[34],inactive
same,Activity,[35],Active
same,selectivity ratio,[36],16
same,Activity,[37],Active
same,Activity,[38],1.94 log10CFU/mg
same,Activity,[39],Active
same,Activity,[40],Active
same,Activity,[41],Active
same,selectivity ratio,[42],399
same,MIC,[43],1 µg/mL
same,Activity,[44],Active
same,Activity,[45],Dose-Dependent Effect
